Assay results: EP4603105A1, “PHARMACEUTICAL COMPOSITION CONTAINING CYCLIC COMPOUND HAVING SELECTIVE KRAS INHIBITORY EFFECT AGAINST HRAS AND NRAS” (CHUGAI SEIYAKU KABUSHIKI KAISHA, priority 2022, dated 2024)

Columns and labels:
[1] = target: GDP-bound NRAS wild-type protein (Homo sapiens, UniProt P01111); test: Binding to NRAS by surface plasmon resonance (SPR), KD and KD ratio to KRAS; conditions: ratio of KD value for GDP-bound NRAS wild-type protein to KD value for KRAS (SPR)
Procedure, shortened: (§1)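 Each cycle, GDP-bound biotin-Avi RAS was captured (~100–300 RU), compound concentrations were injected low to high for 75 s each at 100 µL/min, then the chip was regenerated. Buffer: HBS pH 7.4, 10 mM MgCl2, 10 µM GDP, 1 mM DTT, 4% DMSO; 30°C. KD from a 1:1 binding model.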

HRAS wild-type protein = HRAS wild-type protein (Homo sapiens, UniProt P01112); test: Binding to HRAS by surface plasmon resonance (SPR), KD and KD ratio to KRAS; conditions: ratio of KD value for HRAS wild-type protein to KD value for KRAS (SPR)
HRAS wild-type protein, sequence (P01112 whole entry): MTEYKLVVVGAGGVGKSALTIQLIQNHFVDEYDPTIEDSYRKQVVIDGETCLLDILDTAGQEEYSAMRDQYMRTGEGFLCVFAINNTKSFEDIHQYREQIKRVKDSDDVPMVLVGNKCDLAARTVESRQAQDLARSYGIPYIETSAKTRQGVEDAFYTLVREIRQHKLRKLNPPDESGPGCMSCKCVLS
Procedure, shortened: as §1

[2] = test system: human lung cancer strain NCI-H441; format: cell-based
Procedure, shortened: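 Signal came from […] measured per well once the reagent was added. Beforehand, cells were cultured at 37°C and 5% carbon dioxide on a compound series serially diluted in dimethyl sulfoxide.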

GDP-bound NRAS wild-type protein, sequence (P01111 whole entry): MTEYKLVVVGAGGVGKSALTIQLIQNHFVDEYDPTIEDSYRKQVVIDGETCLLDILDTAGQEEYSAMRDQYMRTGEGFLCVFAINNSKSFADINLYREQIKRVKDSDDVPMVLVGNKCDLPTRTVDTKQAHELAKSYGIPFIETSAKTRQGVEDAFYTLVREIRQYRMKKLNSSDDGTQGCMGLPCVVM

Row | SMILES | IC50 [2] | NRAS /KRAS [1] | HRAS /KRAS (HRAS wild-type protein)
1 | CC[C@H](C)[C@@H]1NC(=O)[C@H](CC)N(C)C(=O)C[C@@H](C(=O)N(C)C)N(C)C(=O)[C@H](C2CCCC2)N(C)C(=O)C2(CCC2)N(C)C(=O)[C@@H]2CCCN2C(=O)[C@H](CCc2cc(F)c(C(F)(F)F)c(F)c2)NC(=O)CN(C)C(=O)[C@H](Cc2ccc(C(F)(F)F)cc2)N2CC/C=C\C[C@@H](C2=O)N(C)C(=O)CN(C)C1=O [PP1780] | 8.2 nM | A (a compound having 10 or more and less than 20 is denoted as A) | A (a compound having 10 or more and less than 20 is denoted as A)
2 | CCO[C@@H]1C[C@H]2C(=O)N(C)C3(CCC3)C(=O)N(C)[C@@H](C3CCCC3)C(=O)N(C)[C@H](C(=O)N(C)C)CC(=O)N(C)[C@@H](CC)C(=O)N[C@@H]([C@@H](C)CC)C(=O)N(C)CC(=O)N(C)[C@H]3C/C=C\CCN(C3=O)[C@@H](Cc3ccc(C)cc3)C(=O)N(C)CC(=O)N[C@@H](CCc3cc(F)c(C(F)(F)F)c(F)c3)C(=O)N2C1 [PP1781] | 2.1 nM | A (a compound having 10 or more and less than 20 is denoted as A) | B (a compound having 3 or more and less than 10 is denoted as B)
3 | CC[C@H](C)[C@@H]1NC(=O)[C@H](CC)N(C)C(=O)C[C@@H](C(=O)N(C)C)N(C)C(=O)[C@H](C2CCCC2)N(C)C(=O)C2(CCC2)N(C)C(=O)[C@@H]2C[C@@H](C)CN2C(=O)[C@H](CCc2cc(F)c(C(F)(F)F)c(F)c2)NC(=O)CN(C)C(=O)[C@H](Cc2ccc(C)cc2)N2CC/C=C\C[C@@H](C2=O)N(C)C(=O)[C@@H]2CCCN2C1=O [PP1789] | 9.5 nM | A (a compound having 10 or more and less than 20 is denoted as A) | A (a compound having 10 or more and less than 20 is denoted as A)
4 | CCC[C@H]1C(=O)N[C@@H]([C@@H](C)CC)C(=O)N(C)CC(=O)N(C)[C@H]2C/C=C\CCN(C2=O)[C@@H](Cc2ccc(C)cc2)C(=O)N(C)CC(=O)N[C@@H](CCc2cc(F)c(C(F)(F)F)c(F)c2)C(=O)N2C[C@H](C)C[C@H]2C(=O)N(C)C2(CCC2)C(=O)N(C)[C@@H](C2CCCC2)C(=O)N(C)[C@H](C(=O)N(C)C)CC(=O)N1C [PP1799] | 7.6 nM | B (a compound having 3 or more and less than 10 is denoted as B) | B (a compound having 3 or more and less than 10 is denoted as B)
5 | CC[C@H](C)[C@@H]1NC(=O)[C@H](CC)N(C)C(=O)C[C@@H](C(=O)N(C)C)N(C)C(=O)[C@H](C2CCCC2)N(C)C(=O)C2(CCCC2)N(C)C(=O)[C@@H]2CCCN2C(=O)[C@H](CCc2cc(F)c(C(F)(F)F)c(F)c2)NC(=O)CN(C)C(=O)[C@H](Cc2ccc(C(F)(F)F)cc2)N2CC/C=C\C[C@@H](C2=O)N(C)C(=O)CN(C)C1=O [PP1805] | 7 nM | A (a compound having 10 or more and less than 20 is denoted as A) | A (a compound having 10 or more and less than 20 is denoted as A)
6 | CCO[C@@H]1C[C@H]2C(=O)N(C)C3(CCCC3)C(=O)N(C)[C@@H](C3CCCC3)C(=O)N(C)[C@H](C(=O)N(C)C)CC(=O)N(C)[C@@H](CC)C(=O)N[C@@H]([C@@H](C)CC)C(=O)N(C)CC(=O)N(C)[C@H]3C/C=C\CCN(C3=O)[C@@H](Cc3ccc(C)cc3)C(=O)N(C)CC(=O)N[C@@H](CCc3cc(F)c(C(F)(F)F)c(F)c3)C(=O)N2C1 [PP1806] | 4 nM | A (a compound having 10 or more and less than 20 is denoted as A) | B (a compound having 3 or more and less than 10 is denoted as B)
7 | CC[C@H](C)[C@@H]1NC(=O)[C@H](CC)N(C)C(=O)C[C@@H](C(=O)N(C)C)N(C)C(=O)[C@H](C2CCCC2)N(C)C(=O)C2(CCCC2)N(C)C(=O)[C@@H]2CCCN2C(=O)[C@H](CCc2cc(F)c(C(F)(F)F)c(F)c2)NC(=O)CN(C)C(=O)[C@H](Cc2ccc(C)cc2)N2CC/C=C\C[C@@H](C2=O)N(C)C(=O)CN(C)C1=O [PP1807] | 5 nM | A (a compound having 10 or more and less than 20 is denoted as A) | B (a compound having 3 or more and less than 10 is denoted as B)

Further molecules by falling IC50 [2], results first:

Row | IC50 [2] | SMILES | NRAS /KRAS [1] | HRAS /KRAS (HRAS wild-type protein)
8 | 11.4 nM | CC[C@H](C)[C@@H]1NC(=O)[C@H](CC)N(C)C(=O)C[C@@H](C(=O)N(C)C)N(C)C(=O)[C@H](C2CCCC2)N(C)C(=O)C2(CCC2)N(C)C(=O)[C@@H]2CCCN2C(=O)[C@H](CCc2cc(F)c(C(F)(F)F)c(F)c2)NC(=O)CN(C)C(=O)[C@H](Cc2ccc(C)cc2)N2CC/C=C\C[C@@H](C2=O)N(C)C(=O)[C@@H]2CCCN2C1=O [PP1786] | A (a compound having 10 or more and less than 20 is denoted as A) | B (a compound having 3 or more and less than 10 is denoted as B)
9 | 7.8 nM | CC[C@H](C)[C@@H]1NC(=O)[C@H](C2CC2)N(C)C(=O)C[C@@H](C(=O)N(C)C)N(C)C(=O)[C@H](C2CCCC2)N(C)C(=O)C2(CCC2)N(C)C(=O)[C@@H]2CCCN2C(=O)[C@H](CCc2cc(F)c(C(F)(F)F)c(F)c2)NC(=O)CN(C)C(=O)[C@H](Cc2ccc(C)cc2)N2CC/C=C\C[C@@H](C2=O)N(C)C(=O)CN(C)C1=O [PP1784] | A (a compound having 10 or more and less than 20 is denoted as A) | B (a compound having 3 or more and less than 10 is denoted as B)
10 | 7.8 nM | CC[C@H](C)[C@@H]1NC(=O)[C@H](CC2CC2)N(C)C(=O)C[C@@H](C(=O)N(C)C)N(C)C(=O)[C@H](C2CCCC2)N(C)C(=O)C2(CCC2)N(C)C(=O)[C@@H]2CCCN2C(=O)[C@H](CCc2cc(F)c(C(F)(F)F)c(F)c2)NC(=O)CN(C)C(=O)[C@H](Cc2ccc(C)cc2)N2CC/C=C\C[C@@H](C2=O)N(C)C(=O)[C@@H]2CCCN2C1=O [PP1798] | A (a compound having 10 or more and less than 20 is denoted as A) | B (a compound having 3 or more and less than 10 is denoted as B)
11 | 6.9 nM | CCO[C@@H]1C[C@H]2C(=O)N(C)C3(CCC3)C(=O)N(C)[C@@H](C3CCCC3)C(=O)N(C)[C@H](C(=O)N(C)C)CC(=O)N(C)[C@@H](CC)C(=O)N[C@@H]([C@@H](C)CC)C(=O)N3CCC[C@H]3C(=O)N(C)[C@H]3C/C=C\CCN(C3=O)[C@@H](Cc3ccc(C)cc3)C(=O)N(C)CC(=O)N[C@@H](CCc3cc(F)c(C(F)(F)F)c(F)c3)C(=O)N2C1 [PP1785] | A (a compound having 10 or more and less than 20 is denoted as A) | A (a compound having 10 or more and less than 20 is denoted as A)
12 | 5.8 nM | CC[C@H](C)[C@@H]1NC(=O)[C@H](CC2CCC2)N(C)C(=O)C[C@@H](C(=O)N(C)C)N(C)C(=O)[C@H](C2CCCC2)N(C)C(=O)C2(CCC2)N(C)C(=O)[C@@H]2CCCN2C(=O)[C@H](CCc2cc(F)c(C(F)(F)F)c(F)c2)NC(=O)CN(C)C(=O)[C@H](Cc2ccc(C)cc2)N2CC/C=C\C[C@@H](C2=O)N(C)C(=O)CN(C)C1=O [PP1802] | A (a compound having 10 or more and less than 20 is denoted as A) | B (a compound having 3 or more and less than 10 is denoted as B)
13 | 5.1 nM | CCO[C@@H]1C[C@H]2C(=O)N(C)C3(CCC3)C(=O)N(C)[C@@H](C3CCCC3)C(=O)N(C)[C@H](C(=O)N(C)C)CC(=O)N(C)[C@@H](CC3CC3)C(=O)N[C@@H]([C@@H](C)CC)C(=O)N3CCC[C@H]3C(=O)N(C)[C@H]3C/C=C\CCN(C3=O)[C@@H](Cc3ccc(C)cc3)C(=O)N(C)CC(=O)N[C@@H](CCc3cc(F)c(C(F)(F)F)c(F)c3)C(=O)N2C1 [PP1797] | A (a compound having 10 or more and less than 20 is denoted as A) | A (a compound having 10 or more and less than 20 is denoted as A)
14 | 3.5 nM | CCO[C@@H]1C[C@H]2C(=O)N(C)C3(CCC3)C(=O)N(C)[C@@H](C3CCCC3)C(=O)N(C)[C@H](C(=O)N(C)C)CC(=O)N(C)[C@@H](C3CC3)C(=O)N[C@@H]([C@@H](C)CC)C(=O)N(C)CC(=O)N(C)[C@H]3C/C=C\CCN(C3=O)[C@@H](Cc3ccc(C)cc3)C(=O)N(C)CC(=O)N[C@@H](CCc3cc(F)c(C(F)(F)F)c(F)c3)C(=O)N2C1 [PP1783] | A (a compound having 10 or more and less than 20 is denoted as A) | B (a compound having 3 or more and less than 10 is denoted as B)
15 | 3.5 nM | CCO[C@@H]1C[C@H]2C(=O)N(C)C3(CCCC3)C(=O)N(C)[C@@H](C3CCCC3)C(=O)N(C)[C@H](C(=O)N(C)C)CC(=O)N(C)[C@@H](CC)C(=O)N[C@@H]([C@@H](C)CC)C(=O)N(C)CC(=O)N(C)[C@H]3C/C=C\CCN(C3=O)[C@@H](Cc3ccc(C(F)(F)F)cc3)C(=O)N(C)CC(=O)N[C@@H](CCc3cc(F)c(C(F)(F)F)c(F)c3)C(=O)N2C1 [PP1804] | A (a compound having 10 or more and less than 20 is denoted as A) | A (a compound having 10 or more and less than 20 is denoted as A)
16 | 2.4 nM | CCC[C@H]1C(=O)N[C@@H]([C@@H](C)CC)C(=O)N(C)CC(=O)N(C)[C@H]2C/C=C\CCN(C2=O)[C@@H](Cc2ccc(C)cc2)C(=O)N(C)CC(=O)N[C@@H](CCc2cc(F)c(C(F)(F)F)c(F)c2)C(=O)N2C[C@H](OCC)C[C@H]2C(=O)N(C)C2(CCC2)C(=O)N(C)[C@@H](C2CCCC2)C(=O)N(C)[C@H](C(=O)N(C)C)CC(=O)N1C [PP1793] | A (a compound having 10 or more and less than 20 is denoted as A) | B (a compound having 3 or more and less than 10 is denoted as B)
17 | 1.7 nM | CCO[C@@H]1C[C@H]2C(=O)N(C)C3(CCC3)C(=O)N(C)[C@@H](C3CCCC3)C(=O)N(C)[C@H](C(=O)N(C)C)CC(=O)N(C)[C@@H](CC(C)C)C(=O)N[C@@H]([C@@H](C)CC)C(=O)N(C)CC(=O)N(C)[C@H]3C/C=C\CCN(C3=O)[C@@H](Cc3ccc(C)cc3)C(=O)N(C)CC(=O)N[C@@H](CCc3cc(F)c(C(F)(F)F)c(F)c3)C(=O)N2C1 [PP1790] | A (a compound having 10 or more and less than 20 is denoted as A) | B (a compound having 3 or more and less than 10 is denoted as B)
